Like-named read-outs stand apart in the source and are kept apart here.
Key:
[1] = tested on: intracellular S. flexneri SF_nanoluc in Caco-2 cells on Cytodex 3 beads; assay: microbe, parasite or virus in culture
Description: S. flexneri SF_nanoluc was grown overnight on a 50mgL^-1 kanamycin LB plate at 37 °C. Bacteria were scraped from the plate surface and sub-cultured in warm supplemented EMEM medium for 2 h (at 37 °C and 200 rpm) and diluted to get OD around 0.3 at 625 nm. Induction was performed in 500 ml or 1000 ml siliconized spinner flasks under closed culture conditions. 200 mg autoclaved Cytodex 3 beads (GE Healthcare), rehydrated with cation-free PBS (Sigma), were washed with supplemented EMEM medium and inoculated with 1.7 million Caco-2 cells/ml in half of the desired culture volume of the medium. The spinner vessel was kept static for 4 h in a humidified atmosphere of 5% CO2 at 37 °C, allowing Caco-2 cells to bind to beads. The remaining medium was added into the vessel and stirred at 32.5 rpm. The medium was changed every 72 h, and the induction was used on day 17 to ensure Caco-2 cells were fully differentiated.
Cell concentration induction was measured by NucleoCounter® NC-100™ (ChemoMetec Version 2.4). Cellular invasion was initiated by adding the bacterial stock into cell induction with optimal MOI, and the vessel was stationary for an hour before stirring at 22.5 rpm for 5 h in a humid atmosphere of 5% CO2 at 37 °C. After incubation, culture media was discarded by centrifugation; and a gentamicin protection assay was performed, in which cell beads were washed twice with a warm medium and EMEM containing gentamicin (100ug ml^-1) was added to the chamber of the system. The cell culture was incubated for 1 h with stirring and then washed three times with a warm medium before 25 μl of the invasive mixture was dispensed into each well. Plates were incubated for two days in a humid atmosphere of 5% CO2 at 37 °C before proceeding to develop the luminescent signal by adding 10 μl mixture of nanoluciferase substrate (Nano-Glo® Luciferase Assay System, N1130, Promega) into each well. After standing at room temperature for 30 min, luminescent signals were quantified by the Envision Reader (PerkinElmer) in focus luminescent mode. For the bacterial tracking, we used the green fluorescent protein in S. flexneri ATCC 12022GFP to monitor the invasion.
The HTS assay was performed in 384-well black clear-bottom plates (Greiner). Screening compounds were prepared with an appropriate DMSO concentration (0.5% in cell-based assay). Every assay plate contained 16 wells of DMSO as negative controls and 16 wells of moxifloxacin at a final concentration of 20 μM as positive controls. These controls were used to monitor assay quality through determination of Z’ factor as well as normalizing the data on a per-plate basis.
To assess the quality of the dose-response assay, 11 commercially available antimicrobials were used to evaluate the reliability of the HTS assay. The percentage of coefficient of variation (CV%) was calculated by accessing the IC50 (μM) deviation of selected positive controls. Intra-assay reproducibility was determined by comparing the IC50 that were generated in the same run of the two replicates. Inter-assay reproducibility was assessed by comparing the IC50 generated by two replicates of each day over two days. Intra-assay %CV should be <10%, while inter-assay %CV should be <15%. To validate the HTS assay configuration, a set of 10 thousand compounds was assayed in 384-well plates at a final concentration of 10 μM. Assay were run in duplicate and confirmed if needed, a validation data was assessed to analyse the pros and cons of the whole procedure.
Following screening, all non-novel structures were removed, and the remaining compounds were subjected to a dose response (DR) assay, which was set as 3-fold serial dilution started at 100uM each compound.
The raw data of the plate reader was imported and analysed in ActivityBase and Spotfire version 10.3.1.18 (TIBCO).

[2] = tested on: HepG2 cells; assay: In vitro cytotoxicity on HepG2 cells; assay type: cell-based; details: for IC50: Homo sapiens
Text: Upon chemical review, the 15 hit compounds were reorganized based on structure similarity into 13 clusters. Two chemicals were considered as a series, and the remaining 11 clusters were singletons (Fig. 3). […] Four of the 15 structures carried an NO2 moiety, including two hits of Series 1, one hit of Series 2, and Singleton 7. Although the antibacterial activity of nitro-containing molecules is known to be broad, nitro groups have been extensively associated with mutagenicity and genotoxicity.

[3] = Experimental Chromlog / ChromLogD pH7.4 and PFI; assay type: physicochemical; details: for Chromlog pH7.4 (Expt): pH7.4, experimental
[4] = CAD solubility; assay type: physicochemical; details: Table 1
[5] = Shigella flexneri, Caco-2, read-out: IC50 T1, 1st Batch, replicate T1
[6] = Shigella flexneri, Caco-2, read-out: IC50 T2, 1st Batch, replicate T2
[7] = Shigella flexneri, Caco-2, read-out: IC50 T3, 2nd Batch, replicate T3
[8] = Shigella flexneri, Caco-2, read-out: IC50 T4, 2nd Batch, replicate T4
[9] = HepG2, read-out: HepG2 pIC50, Table 1 (converted)
[10] = Shigella flexneri, Caco-2, read-out: Caco2 IC50 (μM), Table 1, 3-D Caco-2 beads, intracellular S. flexneri
[11] = Shigella flexneri, Caco-2, read-out: Caco2 pIC50, Table 1 (converted), 3-D Caco-2 beads, intracellular S. flexneri
[12] = HepG2, Supplementary table 8, read-out: HepG2 pIC50 (converted)
[13] = HepG2, Table 1, read-out: HepG2 pIC50 (converted)

| Compound | IC50 [1, 5] [µM] | IC50 [1, 6] [µM] | IC50 [1, 7] [µM] | IC50 [1, 8] [µM] | Selectivity (log) Caco pIC50 vs Cytotox ([1]; Caco-2) [log] | Selectivity (log) Caco pIC50 vs cytox ([1]; Caco-2) [log] | IC50 [1, 10] [µM] | IC50 [1, 11] [µM] | Chromlog pH7.4 (Expt) [3] | CAD sol [4] [µg/mL] | other results |
| --- | --- | --- | --- | --- | --- | --- | --- | --- | --- | --- | --- |
| CN(C)[C@@H]1C(O)=C(C(N)=O)C(=O)[C@@]2(O)C(O)=C3C(=O)c4c(O)cccc4[C@@](C)(O)[C@H]3C[C@@H]12 [Tetracycline, reference compound] | 1.61 | 1.56 | 1.19 | 1.18 | – | – | – | – | – | – | – |
| CO/N=C(\C(=O)N[C@@H]1C(=O)N2C(C(=O)O)=C(CSc3nc(=O)c(=O)[nH]n3C)CS[C@H]12)c1csc(N)n1 [Ceftriaxone, reference compound] | 0.0151 | 0.0151 | 0.0196 | 0.0196 | – | – | – | – | – | – | – |
| CC(=O)c1csc(-c2csc(C)n2)n1 [Compound 10] | – | – | – | – | 1.07 | 1.07 | 8.51 | 8.51 | – | – | IC50 [2, 9]: > 100000 nM |
| CNC(C)C1CCC(N)C(OC2C(N)CC(N)C(OC3OCC(C)(O)C(NC)C3O)C2O)O1 (centres unmarked) [Gentamicin, reference compound] | 1.52 | 1.27 | 1.17 | 1.24 | – | – | – | – | – | – | – |
| CC(=O)c1cccc(NC(=O)Nc2ccc(S(=O)(=O)Nc3cc(C)on3)cc2)c1 [Compound 15] | – | – | – | – | > 0.76 | >0.61 | 17.4 | 17.4 | 2.04 | >149 | IC50 [2, 12]: > 100000 nM; IC50 [2, 9]: > 10 nM |
| NC(=O)c1ccccc1Oc1ccc(Cl)cc1[N+](=O)[O-] [Compound 11] | – | – | – | – | 0.61 | – | – | – | – | – | HepG2 cytotoxicity (in words) [2]: exhibit HepG2 cytotoxicity; IC50 [2, 12]: 23400 nM; IC50 ([1]; Shigella flexneri, Caco-2, read-out: Caco2 pIC50, Supplementary table 8 (converted)): 5.75 µM |
| Cc1nn(-c2ccccc2)c(C)c1NC(=O)CN1C(=O)NC(C)(c2ccco2)C1=O (centres unmarked) [Compound 14] | – | – | – | – | > 0.61 | >0.61 | 24.6 | 24.5 | 2.93 | >106 | IC50 [2, 12]: > 100000 nM; IC50 [2, 9]: > 100 nM |
| CC[C@H]1OC(=O)[C@H](C)[C@@H](O[C@H]2C[C@@](C)(OC)[C@@H](O)[C@H](C)O2)[C@H](C)[C@@H](O[C@@H]2O[C@H](C)C[C@H](N(C)C)[C@H]2O)[C@](C)(O)C[C@@H](C)CN(C)[C@H](C)[C@@H](O)[C@]1(C)O [Azithromycin, reference compound] | 0.569 | 0.51 | 0.624 | 0.624 | – | – | – | – | – | – | – |
| CC(C)c1noc2ncc(C(=O)c3ccccc3O)cc12 [Compound 12] | – | – | – | – | 1.80 | 1.80 | 1.59 | 1.58 | 6.05 | 44 | IC50 [2, 12]: > 100000 nM; IC50 [2, 9]: > 10000 nM; PFI (Expt) ([3]; experimental): 9.05 |
| COc1ccc(-c2ccn(CC[C@](C)(C(=O)NO)S(C)(=O)=O)c(=O)c2)c(F)c1 [PF5081090, reference compound] | – | – | – | – | – | – | – | – | – | – | IC50 ([1]; read-out: IC50 T1, 1st Batch, replicate T1): 0.0957 µM; IC50 ([1]; read-out: IC50 T2, 1st Batch, replicate T2): 0.0919 µM; IC50 ([1]; read-out: IC50 T3, 2nd Batch, replicate T3): 0.0937 µM; IC50 ([1]; read-out: IC50 T4, 2nd Batch, replicate T4): 0.0938 µM |
| COc1ccc(C2Nc3nc4ccccc4n3C(C)=C2C(=O)Nc2ccccc2)cc1 (centres unmarked) [Compound 8] | – | – | – | – | 0.38 | 0.38 | 22.9 | 22.9 | 4.77 | 10 | HepG2 cytotoxicity (in words) [2]: exhibit HepG2 cytotoxicity; IC50 [2, 13]: 55000 nM |
| CCn1c(-c2nonc2N)nc2c(-c3cccc(Cl)c3)ncc(C(O)c3ccn(C)n3)c21 (centres unmarked) [Compound 7] | – | – | – | – | > 1.49 | >1.49 | 3.24 | 3.24 | 4.75 | 10 | IC50 [2, 13]: > 100000 nM |
| C[C@@H](O)[C@H]1C(=O)N2C(C(=O)O)=C(S[C@@H]3CN[C@H](C(=O)N(C)C)C3)[C@H](C)[C@H]12 [Meropenem, reference compound] | 0.349 | 0.365 | 0.404 | 0.399 | – | – | – | – | – | – | – |
| CN1C(=O)[C@H](NC(=O)NCc2ccccc2)N=C(c2ccccc2)c2ccccc21 [Compound 5] | – | – | – | – | – | – | 19.1 | 19.1 | – | – | IC50 [2, 13]: > 100000 nM; Selectivity (log) Caco pIC50 vs Cytotox ([1]; Supplementary table 8, vs HepG2): > 0.72 log; Selectivity (log) Caco pIC50 vs cytox ([1]; Table 1, Caco2 pIC50 vs HepG2 pIC50): >0.72 log |
| N#Cc1cnn2c1[nH]c(=O)c1sc(-c3ccccc3)cc12 [Compound 9] | – | – | – | – | 0.58 | 0.58 | 19.9 | 20 | 2.5 | 17 | IC50 [2, 13]: 75900 nM; IC50 ([1]; Shigella flexneri, Caco-2, read-out: Caco2 pIC50, printed in Fig. 3 (converted)): 2 µM |
| COc1ccc2c(CC(=O)NC(c3ccc(Cl)cc3)C3CC3)coc2c1 (centres unmarked) [Compound 13] | – | – | – | – | > 0.61 | >0.61 | 24.6 | 24.5 | 6.43 | 53 | IC50 [2, 12]: > 100000 nM; IC50 [2, 9]: > 1000 nM |
| C[C@@H](O)[C@H]1C(=O)N2C(C(=O)O)=C([C@H]3CCCO3)S[C@H]12 [Faropenem, reference compound] | 1.3 | 1.23 | 1.43 | 1.44 | – | – | – | – | – | – | – |

From article PMC12081684, “A three-dimensional high throughput assay identifies novel antibacterial molecules with activity against intracellular Shigella” (npj Antimicrobials and Resistance, 2025)
